Test results taken from PMC7459852, “Identification of 6-(piperazin-1-yl)-1,3,5-triazine as a chemical scaffold with broad anti-schistosomal activities” (Wellcome Open Research, 2020).
Like-named read-outs stand apart in the source and are kept apart here.

How the values were obtained:
[1] = test system: schistosomula and adult schistosomes; design: method as in PMID 31730617; settings: SGC collection tested by the authors' laboratory; cited from earlier work
S. mansoni schistosomula = assay: Schistosomula screens (Roboworm, phenotype and motility); format: cell-based, Schistosoma mansoni; settings: 72 h; for EC50: Schistosoma mansoni
Procedure: Anthelmintic activity on the schistosomula stage of S. mansoni was evaluated using Roboworm, an integrated high-throughput, high content image analysis platform originally developed by Paveley et al. and subsequently used by our research group as previously described, [28], [50], [51]. Alternatively, the computer application Worminator can be used to assess motion of microscopic parasites such as the schistosomula stage of S. mansoni. Compounds (as single concentration or two-fold titrations) were prepared for screening in a 384-well plate (PerkinElmer, MA, USA), where solutions (1.6 mM, 0.5 μl) were wet stamped using the Biomek NX ^P liquid handling platform into Basch medium (20 μl). Negative (0.625% DMSO) and positive (Auranofin - AUR - at 10 µM final concentration in 0.625% DMSO) control wells were similarly prepared. Mechanically transformed schistosomula (about 120 parasites in 60 μl of Basch medium) were distributed into each treated well using a WellMate (Thermo Scientific, Loughborough, UK). Schistosomula/compound co-cultures were then incubated at 37°C for 72 h in a humidified atmosphere containing 5% CO 2. At 72 h, parasite/compound co-cultures were resuspended and tissue culture plates were imaged under the same conditions (37°C for 72 h in a humidified atmosphere containing 5% CO 2) using an ImageXpressXL high content imager (Molecular Devices, UK) with subsequent images processed for phenotype and motility as previously reported. Plate analysis returned a phenotype and motility score for each well and any scores below -0.15 and -0.35 (defined threshold anti-schistosomula values for phenotype and motility scores, respectively) defined a condition displaying anti-schistosomula activity. Compound screens were assessed based on the Z´ values (derived from the means and standard deviations of positive and negative controls) and those equal to or above 0.3 for both phenotype and motility were considered successful.
Phenotype and motility scores of each titration were used to generate dose response curves in GraphPad Prism 7.02 based on the corrected average score of the three replicates for each data point.

S. mansoni adult worms = assay: Adult worm screens (WormassayGP2 motility, egg count); format: cell-based, Schistosoma mansoni; settings: 72 h; for adult worm egg production / adult worm motility compared to compound 7: 12.5 µM; for adult worm motility and oviposition: 6.25 µM, compared to compound 7
Procedure: For compound screening, adult worms (three worm pairs/well for compound 7 and the hit compounds of set two; one worm pair/well for the hit compounds of set three) were transferred into wells of a 48-well tissue culture plate containing 1 ml of adult worm media. Adult worms were treated with compounds previously identified as hits at 10 µM on 72 h cultured schistosomula. Worms were dosed with an appropriate volume of 10 mM stock solution of each compound (in DMSO) to have a concentration range of 50 – 6.25 µM (up to 0.5% DMSO, primary screen of compound 7). Secondary screens were performed on the structural analogues of compound 7 (only the schistosomula hits at 10 µM) at a single concentration (12.5 µM) and compared to the same concentration of the parental compound (included in the screen as reference). DMSO (0.5%) and praziquantel (10 µM in 0.5% DMSO) were also included as negative and positive control treatments (both primary and secondary screens). Treated adult worms were incubated for 72 h in a humidified environment at 5% CO 2 at 37°C. Parasite motility after drug treatment was assessed by a digital image processing-based system (WormassayGP2, see Software availability) modified after Wormassay, [56], [57]. Egg production was assessed according to the methodology described by Edwards et al..

S. mansoni miracidia = assay: Miracidia to sporocyst transformation screens; format: cell-based, Schistosoma mansoni; settings: 10 µM, 48 h
Procedure: Following hatching of S. mansoni eggs, miracidia were incubated on ice for 15 min and then centrifuged at 700 x g for 5 min at 4°C. The miracidia pellet was then re-suspended in 5 ml of Chernin's balanced salt solution (CBSS), subjected to pelleting and two subsequent washes (all at 700 x g for 5 min at 4°C). Afterwards, the supernatant was carefully removed with a serological pipette and the miracidia-enriched pellet was resuspended with CBSS supplemented with 1 mg/ml each of glucose and trehalose and 500 µl of Penicillin-Streptomycin (containing 10,000 units penicillin and 10 mg streptomycin/ml, P4333, Sigma-Aldrich). In preparation for the screens, CBSS (250 µl) was aliquoted to each well of a 24-well plate followed by addition of each compound in DMSO (1 mM concentration in 1% DMSO) or DMSO alone (1%, negative control). Next, approximately 20-25 miracidia (in 250 µl of CBSS) were aliquoted to each well. […] Both preliminary and secondary screens were performed in duplicate on two separate occasions (two independent biological replicates). Miracidia were incubated for 48 h at 26°C before being evaluated using an Olympus inverted light microscope for morphological and behavioural changes differing from the control wells. Dead, partially transformed and fully transformed miracidia were enumerated in the DMSO control and the assay plates as previously described, [23], [59]. […] Absence of ciliated plates attached to the surface of the parasite and formation of sporocyst tegument defined the so-called “fully transformed” parasites.

[2] = MTT cytotoxicity assay on HepG2 cells; format: cell-based, Human; settings: human, HepG2 cells, MTT, 24 h; three dose response titrations (200 - 1 µM)
Procedure: (§1) Compound cytotoxicity on Human Hepatocyte Carcinoma (HepG2) cells (85011430, Sigma Aldrich) was elucidated by the MTT (3-(4,5-dimethylthiazol-2-yl)-2,5-diphenyltetrazolium bromide) tetrazolium reduction assay as previously described, [28], [50]. Briefly, HepG2 cells were seeded at a density of 20,000 per well in 96-well black, clear bottom falcon plate in modified BME medium (50 μl; containing 1% antibiotic/mycotic (Sigma-Aldrich, Gillingham, UK), 1% 200 mM L-glutammine (Gibco, Paisley, UK), 1% MEM non-essential amino acid solution (Gibco, Paisley, UK), and 10% fetal bovine serum (Gibco, Paisley, UK)). HepG2 plates seeded for cytotoxicity screens were treated with compounds 24 h post-seeding. Each compound was tested at 200, 100, 75, 50, 20, 10 and 1 µM; each concentration was assayed in triplicate. Blank wells (no cells), as well as positive (1% v/v Triton X-100, X100, Sigma-Aldrich) and negative (1.25% v/v DMSO or media only) controls, were included in each plate. After addition of compounds, each plate was then incubated for a further 20 h before application of MTT reagent for assessment of compound cytotoxicity (4 h incubation with MTT for a total 24 h cell-drug incubation). The absorbance reading at 570 nm was measured with a POLARstar Omega (BMG Labtech, UK) microtiter plate reader. Dose response curves were generated in GraphPad Prism 7.02 based on the corrected average absorbance of the three replicates for each concentration point.

HepG2 cells = assay: MTT cytotoxicity assay on HepG2 cells; format: cell-based, Human; settings: dose response titration
Procedure: as §1

[3] = average of phenotype and motility metrics, read-out: Schistosomula EC50 Average
[4] = dose response titrations (10 - 0.625 µM), read-out: Schistosomula EC50 Motility
[5] = dose response titrations (10 - 0.625 µM), read-out: Schistosomula EC50 Phenotype

EC50 (S. mansoni schistosomula; [3]) [µM] | EC50 (S. mansoni schistosomula; [4]) [µM] | EC50 (S. mansoni schistosomula; [5]) [µM] | SMILES | activity on schistosomula and adult schistosomes [1] | other results
– | – | – | CCN(C(=O)CO)[C@H]1CN(/C(=N\C#N)Nc2cccc(OC(F)F)c2)N=C1c1ccc(Cl)c(Cl)c1 [BAY-598] | potent activities | –
– | – | – | O=C1CNC(=O)/C1=C\Nc1ccc(O)cc1 [Compound 4] | – | anti-schistosomula activity (hit on phenotype and motility) (S. mansoni schistosomula; 50 µM): showed anti-schistosomal activity; schistosomula phenotype induced (S. mansoni schistosomula; 50 µM): elongated phenotype
4.12 | 4.98 | 3.27 | c1ccc(Nc2nc(Nc3ccccc3)nc(N3CCNCC3)n2)cc1 [Compound 8] | – | adult worm egg production (S. mansoni adult worms): reducing egg production similarly to compound 7; adult worm motility compared to compound 7 (S. mansoni adult worms): more potent than the original hit compound; effect on miracidia (S. mansoni miracidia): readily killed miracidia; CC50 at 24 h [2]: 14.9 µM
> 50 | > 50 | > 50 | C1CN(c2nc(N3CCOCC3)nc(N3CCOCC3)n2)CCN1 [Compound 10] | – | –
> 50 | > 50 | > 50 | c1ccc2sc(N3CCN(c4nc(N5CCOCC5)nc(N5CCOCC5)n4)CC3)nc2c1 [Compound 11] | – | –
4.49 | 4.41 | 4.57 | c1ccc(CNc2nc(Nc3ccccc3)nc(N3CCNCC3)n2)cc1 [Compound 12] | – | adult worm egg production (S. mansoni adult worms): reducing egg production similarly to compound 7; adult worm motility compared to compound 7 (S. mansoni adult worms): more potent than the original hit compound; effect on miracidia (S. mansoni miracidia): readily killed miracidia; CC50 at 24 h [2]: 11 µM
4.76 | 4.82 | 4.7 | Cc1ccccc1Nc1nc(Nc2ccccc2C)nc(N2CCNCC2)n1 [Compound 13] | – | effect on miracidia (S. mansoni miracidia): readily killed miracidia; CC50 at 24 h [2]: 17.9 µM
> 10 | > 10 | > 10 | Cc1ccccc1Nc1nc(N2CCNCC2)nc(N2CCOCC2)n1 [Compound 14] | – | anti-schistosomula activity (hit on phenotype and motility) (S. mansoni schistosomula; 50 µM): only active at 50 µM
1.44 | 1.79 | 1.09 | Cc1ccc(Nc2nc(N3CCNCC3)nc(N3CCOCC3)n2)cc1 [Compound 15] | – | adult worm egg production (S. mansoni adult worms): reducing egg production similarly to compound 7; adult worm motility compared to compound 7 (S. mansoni adult worms): more potent than the original hit compound; effect on miracidia (S. mansoni miracidia): all readily killed miracidia except for compounds 15 and 16; CC50 at 24 h [2]: 23.9 µM
– | > 10 | > 10 | C1CCN(c2nc(N3CCCC3)nc(N3CCNCC3)n2)C1 [Compound 17] | – | anti-schistosomula activity (hit on phenotype and motility) (S. mansoni schistosomula; 50 µM): active at the highest concentration
> 50 | > 50 | > 50 | O=S(=O)(c1ccc(Cl)cc1)N1CCN(c2nc(N3CCCCC3)nc(N3CCCCC3)n2)CC1 [Compound 18] | – | –
> 50 | > 50 | > 50 | O=C(c1ccc(Cl)cc1)N1CCN(c2nc(N3CCCCC3)nc(N3CCCCC3)n2)CC1 [Compound 19] | – | –
– | 4.93 | 3.47 | CC(=O)Nc1ccc(S(=O)(=O)N2CCN(c3nc(N4CCCCC4)nc(N4CCCCC4)n3)CC2)cc1 [Compound 20] | – | anti-schistosomula activity (hit on phenotype and motility) (S. mansoni schistosomula; 50 µM): active at the highest concentration; adult worm motility and oviposition (S. mansoni adult worms): strong anthelmintic activities; adult worm egg production (S. mansoni adult worms): greater potency than compound 7; adult worm motility compared to compound 7 (S. mansoni adult worms): greater potency than compound 7; effect on miracidia (S. mansoni miracidia): readily killed miracidia; CC50 at 24 h [2]: > 100 µM; cytotoxicity on HepG2 cells (in words) (HepG2 cells): not toxic to this cell line, except for concentrations above 100 µM
> 50 | > 50 | > 50 | O=[N+]([O-])c1ccc2nc(N3CCN(c4nc(N5CCOCC5)nc(N5CCOCC5)n4)CC3)sc2c1 [Compound 21] | – | –
– | 1.64 | 2.09 | c1ccc(Nc2nc(N3CCNCC3)nc(N3CCOCC3)n2)cc1 [Compound 22] | – | anti-schistosomula activity (hit on phenotype and motility) (S. mansoni schistosomula; 50 µM): active at the highest concentration; CC50 at 24 h [2]: 93.5 µM
– | 1.81 | 1.57 | Cc1ccc(Nc2nc(N3CCNCC3)nc(N3CCN(c4ccccc4)CC3)n2)cc1 [Compound 24] | – | anti-schistosomula activity (hit on phenotype and motility) (S. mansoni schistosomula; 50 µM): active at the highest concentration; adult worm motility and oviposition (S. mansoni adult worms): the most potent; adult worm egg production (S. mansoni adult worms): greater potency than compound 7; adult worm motility compared to compound 7 (S. mansoni adult worms): greater potency than compound 7; effect on miracidia (S. mansoni miracidia): readily killed miracidia; cytotoxicity on HepG2 cells (in words) (HepG2 cells): showed the highest toxicity
– | – | – | Clc1cc2c(NC3CCCC3)nnc(-c3ccncc3)c2cc1Cl [Compound A-196] | potent activities | –
– | – | – | CCCc1cc(C)[nH]c(=O)c1CNC(=O)c1cc(-c2ccnc(N3CCN(C)CC3)c2)cc2c1cnn2C(C)C [GSK343] | potent activities | –
– | – | – | COc1cc(C(=O)N2CC[C@@H](O)[C@@H](N)C2)cc2nc(-c3cc4ccccc4n3CC3CC3)n(C)c12 [GSK484] | potent activities | –
– | – | – | CCOC(=O)CCNc1cc(N2CCc3ccccc3CC2)nc(-c2ccccn2)n1 [GSK-J4] | potent activities | –
– | – | – | Cc1cn(CCN2CCN(c3ccccc3-c3cc(C#N)cc(C(=O)NCCCN4CCCC4)c3)CC2)c2ccccc12 [LLY-507] | potent activities | –
– | – | – | CC(C)Oc1ccc(-c2c[nH]cc2CN(C)CCN)cc1 [MS023] | potent activities | –
– | – | – | CCCc1cc(C)[nH]c(=O)c1CNC(=O)c1cc(-c2ccc(N3CCN(C(C)C)CC3)nc2)cc2c1cnn2C(C)C [UNC1999] | potent activities | –
